# Key:
# Format in all cases: cell-based
# COS-7 and HepG2 cells [1] = assay: Cell survival after transfection (cell line not given); details: cell line and helper lipid not given; for % surv / % surv mean: Table 11
# Protocol: (§1) Transfections were carried out following standard protocols as is described in EP 0755924. In numerous publications variations of transfection protocols are given. A person acquainted with the field of non-viral transfections, in particular transfections using cationic amphiphiles will be able to use the cationic amphiphiles of the invention in transfection methods known per se. In standard experiments COS-7 cells are transfected with plasmid DNA containing the β-galactosidase reporter gene. Upon successful transfection the cell produces the enzyme β-galactosidase whose activity can be easily measured. Other plasmids comprising alternative reporter genes such as the gene encoding Green Fluorescent Protein or Chloroamphenicol Acetyl Transferase are suited as well. For analyzing stable transfection a plasmid containing the neomycin resistance gene can be used. Toxicity of the cationic amphiphiles towards the cells can be monitored qualitatively and quantitatively by visual inspection of the cells and by a protein determination.
# (§2) COS-7 and HepG2 cells were cultured in Dulbecco's Modified Eagle Medium (DMEM Gibco The Netherlands) containing 7% of fetal calf serum, 2 mM L-Glutamine, 100 units/ml of penicilin and […] of streptomycin at 37° C. in CO2/air (1:19).
# (§3) Cells (1×10^5 cells/well) were seeded in 12-well plates and were allowed to grow overnight.
# (§4) The complex of cationic amphiphile/helper lipid (1:1) with pCMV GFP was prepared at the charge ratio 2.5:1 (15 nmol lipid and 1 μg DNA), in 100 μl 10 mM HEPES (pH=7.4, 150 mM NaCl). After 10-15 min incubation at room temperature, the resulting complex was diluted in 1 ml medium (DMEM) and 0.5 ml of the mixture was added to the cells and incubated for 4 h at 37° C. The transfection efficiency expressed as a percentage of GFP positive cells was measured by FACS (Fluorescence Activated Cell Soorting) 48 hours after the transfection.
# (§5) Control wells underwent identical steps except that no cationic amphiphile was added.
# COS-7 and HepG2 cells [2] = assay: Transfection with pCMV GFP plasmid, % GFP positive cells by FACS (cell line not given); details: cell line and helper lipid not given
# Protocol: as §1
# (§6) A solution of cationic amphiphile in a 50/50 molar ratio with DOPE, DOPC or cholesterol in chloroform was dried under a stream of nitrogen. The residual solvent was removed under vacuum. The lipid film was hydrated in water at room temperature and sonicated to clarity in a bath sonicator immediately before use.
# (§7) A 4.7 kb pair plasmid containing the GFP reporter gene under control of the cytomegalovirus immediate early gene promoter/enhancer (pCMV GFP).DNA was isolated from E. coli using a Qiagen Plasmid Kit (QIAGEN Inc, USA). The plasmid concentration was determined by measuring the absoption at 260 nm using the relation 1.0 OD=50 μg/ml. The OD260/OD280 value was 1.95.
# as §2, §3, §4, §5
# HepG2 [3] = assay: Cell survival after transfection (Table 3); details: HepG2, DOPE; further: tested at 6.8 µM
# Protocol: as §1, §2, §3, §4, §5
# HepG2 [4] = assay: Transfection with pCMV GFP plasmid, % GFP positive cells by FACS (Table 3); details: HepG2, DOPE
# Protocol: as §1, §6, §7, §2, §3, §4, §5
# Wherever % surv mean is given: tested at 6.8 µM.
Compound,% surv cells (COS-7 and HepG2 cells [1]; Table 1) [%],% surv cells (COS-7 and HepG2 cells [1]; Table 2) [%],% surv cells (COS-7 and HepG2 cells [1]; Table 7) [%],% surv cells (COS-7 and HepG2 cells [1]; Table 8) [%],% surv cells (COS-7 and HepG2 cells [1]; Table 9) [%],% surv cells (COS-7 and HepG2 cells [1]; Table 10) [%],% TE (COS-7 and HepG2 cells [2]; Table 1) [%],% TE (COS-7 and HepG2 cells [2]; Table 2) [%],% TE (COS-7 and HepG2 cells [2]; Table 7) [%],% TE (COS-7 and HepG2 cells [2]; Table 8) [%],% TE (COS-7 and HepG2 cells [2]; Table 9) [%],% TE (COS-7 and HepG2 cells [2]; Table 10) [%],% surv cells (COS-7 and HepG2 cells [1]; Table 4) [%],% surv cells (COS-7 and HepG2 cells [1]; Table 6) [%],% TE (COS-7 and HepG2 cells [2]; Table 4) [%],% TE (COS-7 and HepG2 cells [2]; Table 6) [%],% surv cells (HepG2 [3]; first value) [%],% surv cells Mean (HepG2 [3]) [%],% surv cells (HepG2 [3]; second value) [%],% TE (HepG2 [4]; first value) [%],also measured
"CCCCCCCC/C=C\CCCCCCCCC(CCCCCCCC/C=C\CCCCCCCC)c1cc[n+](C)cc1.[Cl-] [S2, reference compound]",62.6,43.38,82.51,60.78,65.19,21.81,25.17,16.27,51.9,12.91,7.55,1.78,,,,,,,,,"% surv (COS-7 and HepG2 cells [1]; first value): 87.64%; % surv mean (COS-7 and HepG2 cells [1]): 87.24%; % surv (COS-7 and HepG2 cells [1]; second value): 86.84%; % TE (COS-7 and HepG2 cells [2]; Table 11, first value): 41.2%; % TE mean (COS-7 and HepG2 cells [2]; Table 11): 42.8%; % TE (COS-7 and HepG2 cells [2]; Table 11, second value): 44.4%"
"CCCCCCCC/C=C\CCCCCCCC[n+]1ccc(CCCCCCCCCCCCCCCCCCC)cc1.[Cl-] [SF14, 1-(9′-cis-octadecenyl)4nonadecyl-pyridinium Chloride]",,,,,,,,,,,,,78.64,93.14,7.72,1.6,,,,,"% surv cells (COS-7 and HepG2 cells [1]; Table 5): 87.81%; % surv (COS-7 and HepG2 cells [1]; first value): 88.63%; % surv mean (COS-7 and HepG2 cells [1]): 87.805%; % surv (COS-7 and HepG2 cells [1]; second value): 86.98%; % TE (COS-7 and HepG2 cells [2]; Table 5): 2.79%; % TE (COS-7 and HepG2 cells [2]; Table 11, first value): 2.41%; % TE mean (COS-7 and HepG2 cells [2]; Table 11): 3.1%; % TE (COS-7 and HepG2 cells [2]; Table 11, second value): 3.78%"
"CCCCCCCC/C=C\CCCCCCCC[n+]1ccc(CCCCCCCCCCCCC)cc1.[Cl-] [SF30, 1-(9′-cis-octadecenyl)-4-tridecyl-pyridinium Chloride]",78.45,46.45,84.28,75.35,84.28,60.16,9.73,16.61,13.61,3.09,13.61,5.32,,,,,,,,,
"CCCCCCCCCCCCCc1cc[n+](CCCCCCCC)cc1.[Cl-] [SF32, 1-octyl-4-tridecyl-pyridinium Chloride]",71.07,44.08,81.56,72.1,56.32,78.75,0.83,6.99,1.56,4.44,5.19,2.19,,,,,,,,,
"CCCCCCCCCCCCCc1cc[n+](CCCCCCCCCC)cc1.[Cl-] [SF33, 1-decyl-4-tridecyl-pyridinium Chloride]",78.47,39.82,87.79,75.05,68.99,69.94,3.07,9.71,0.05,3.82,3.85,5.77,,,,,,,,,
"CCCCCCCCCCCCCc1cc[n+](CCCCCCCCCCCC)cc1.[Cl-] [SF34, 1-dodecyl-4-tridecyl-pyridinium Chloride]",56.91,40.88,84.47,50.43,68.01,67.89,13.51,7.13,4.3,4.77,4.3,6.26,,,,,,,,,
"CCCCCCCCCCCCCC[n+]1ccc(CCCCCCCCCCCCC)cc1.[Cl-] [SF35, 1-tetradecyl-4-tridecyl-pyridinium Chloride]",65.49,42.35,82.58,72.37,68.67,70.39,18.92,10.48,6.4,3.23,3.32,3.23,,,,,,,,,
"CCCCCCCCCCCCCCCC[n+]1ccc(CCCCCCCCCCCCC)cc1.[Cl-] [SF36, 1-hexadecyl-4-tridecyl-pyridinium Chloride]",76.77,36.8,84.28,64.88,63.36,37.75,1.39,15.06,25.36,4.46,2.73,1.75,,,,,,,,,
"CCCCCCCCCCCCCCCCCC[n+]1ccc(CCCCCCCCCCCCC)cc1.[Cl-] [SF37, 1-stearyl-4-tridecyl-pyridinium Chloride]",70.04,41.67,75.65,70.7,64.58,63.85,4.4,18.39,8.5,5.02,2.95,2.74,,,,,,,,,
"CCCCCCCC/C=C\CCCCCCCC[n+]1ccc(C)cc1.[Cl-] [SF38, 1-(9′-cis-octadecenyl)-4-methyl-pyridinium Chloride]",,,,,,,,,,,,,63.19,94.13,5.43,0.47,23.6,22.05,20.5,0.82,% TE mean (HepG2 [4]): 0.555%; % TE (HepG2 [4]; second value): 0.29%
"CCCCCCCC/C=C\CCCCCCCC[n+]1ccc(CCC)cc1.[Cl-] [SF39, 1-(9′-cis-octadecenyl)-4-propyl-pyridinium Chloride]",,,,,,,,,,,,,66.48,92.2,4.38,0.84,24.55,28.015,31.48,0.1,% TE mean (HepG2 [4]): 0.085%; % TE (HepG2 [4]; second value): 0.07%
"CCCCCCCC/C=C\CCCCCCCC[n+]1ccc(CCCCC)cc1.[Cl-] [SF40, 1-(9′-cis-octadecenyl)-4-pentyl-pyridinium Chloride]",,,,,,,,,,,,,69.87,94.54,5.18,0.16,30.55,30.09,29.63,0.04,% TE mean (HepG2 [4]): 0.09%; % TE (HepG2 [4]; second value): 0.14%
"CCCCCCCC/C=C\CCCCCCCC[n+]1ccc(CCCCCCC)cc1.[Cl-] [SF41, 1-(9′-cis-octadecenyl)-4-heptyl-pyridinium Chloride]",,,,,,,,,,,,,60.54,89.11,7.13,3.44,28.65,34.62,40.59,0.07,% TE mean (HepG2 [4]): 0.085%; % TE (HepG2 [4]; second value): 0.1%
"CCCCCCCC/C=C\CCCCCCCC[n+]1ccc(CCCCCCCCC)cc1.[Cl-] [SF42, 1-(9′-cis-octadecenyl)-4-nonyl-pyridinium Chloride]",,,,,,,,,,,,,70.14,93.49,5.05,5.13,40.1,33.785,27.47,1.2,"% surv cells (COS-7 and HepG2 cells [1]; Table 5): 75.02%; % surv (COS-7 and HepG2 cells [1]; first value): 86.37%; % surv mean (COS-7 and HepG2 cells [1]): 84.435%; % surv (COS-7 and HepG2 cells [1]; second value): 82.5%; % TE mean (HepG2 [4]): 0.925%; % TE (HepG2 [4]; second value): 0.65%; % TE (COS-7 and HepG2 cells [2]; Table 5): 0.81%; % TE (COS-7 and HepG2 cells [2]; Table 11, first value): 8.41%; % TE mean (COS-7 and HepG2 cells [2]; Table 11): 7.95%; % TE (COS-7 and HepG2 cells [2]; Table 11, second value): 7.49%"
